Reference: patent publication US4579866A, “Phenylacetamides as anti-allergy, anti-asthma and anti-inflammatory agents” (USV Pharmaceutical Corp., priority 1984, dated 1986)

What was measured:
HUMAN 5 LIPOXYGENASE = biological target: T1, HUMAN 5 LIPOXYGENASE (Homo sapiens, UniProt P09917); assay: Biosynthesis of 5-HETE by human polymorphonuclear leukocytes in vitro (inhibition of human 5-lipoxygenase); type: cell-based; details: human neutrophils, A23187, 3 minutes at 30° C.; for IC50: concentration at which 50% inhibition is observed, read-out: INHIBITION OF HUMAN 5 LIPOXYGENASE, I50
T1 construct: A suspension of human neutrophils in buffer; endogenous in cells; host or cells: human neutrophils (PMNs) from venous blood of healthy volunteers
T1 sequence (P09917 1-674): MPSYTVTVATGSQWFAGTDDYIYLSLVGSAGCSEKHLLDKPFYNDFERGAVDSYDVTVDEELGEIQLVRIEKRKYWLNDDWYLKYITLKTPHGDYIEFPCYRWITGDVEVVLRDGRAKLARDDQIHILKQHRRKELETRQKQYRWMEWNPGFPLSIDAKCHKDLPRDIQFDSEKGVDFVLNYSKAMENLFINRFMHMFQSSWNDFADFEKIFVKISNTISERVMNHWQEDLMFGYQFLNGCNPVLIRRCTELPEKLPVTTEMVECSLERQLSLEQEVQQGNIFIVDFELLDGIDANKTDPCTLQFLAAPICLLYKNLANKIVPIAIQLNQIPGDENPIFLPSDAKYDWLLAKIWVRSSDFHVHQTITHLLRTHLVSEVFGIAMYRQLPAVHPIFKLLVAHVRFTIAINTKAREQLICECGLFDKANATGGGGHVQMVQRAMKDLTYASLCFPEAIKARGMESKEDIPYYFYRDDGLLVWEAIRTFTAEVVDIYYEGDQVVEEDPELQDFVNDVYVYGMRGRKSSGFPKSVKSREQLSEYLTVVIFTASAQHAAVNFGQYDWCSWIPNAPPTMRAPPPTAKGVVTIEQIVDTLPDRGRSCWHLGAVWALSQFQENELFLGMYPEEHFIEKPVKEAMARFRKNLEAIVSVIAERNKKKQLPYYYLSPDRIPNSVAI
Procedure: Protocol for the Biosynthesis of 5-HETE (5(S)-Hydroxyeicosatetraenoic Acid) by Human Polymorphonuclear Leukocytes In Vitro
(A) Isolation of Human Neutrophils
Freshly drawn venous blood from healthy human volunteers is mixed with 2 mM ethylenediamine tetraacetic acid, and is sedimented at 1×g over 6% dextran-saline. The leukocyte layer is aspirated, and the cells are concentrated by centrifugation and are layered over stacked Percoll® solutions, having densities of 1.072, 1.082 and 1.100, respectively. PMNs are isolated at the interface between the two densest layers after centrifugation at 400×g. Contaminating red blood cells are lysed by a short treatment of 0.16M ammonium chloride.
A suspension of human neutrophils in buffer is incubated for 3 minutes at 30° C. with (^14 C)-arachidonic acid (AA) and calcium ionophore A23187. Citric Acid (2M)/NDGA*(10 mM) is used to quench the reaction. Following the addition of a trace amount of (^3 H)-5-HETE together with an excess of unlabeled 5-HETE to each tube, the mixture is extracted with chloroform/methanol. The organic layer is washed with dilute hydrochloric acid and the total volume is transferred to glass tubes and dried in vacuo. The residue is dissolved in a small volume of chloroform and is spotted on silica gel TLC sheets, which are developed with an ethyl acetate/iso-octane/water/acetic acid solvent system (11/5/10/1 v/v). The 5-HETE spots are visualized under UV light, cut out and placed in scintillation vials for quantitation of radioactivity. After adjusting for the extraction efficiency, the amount (pmole) of (^14 C)-5-HETE in each of the tubes is calculated. The net pmoles of 5-HETE are obtained by subtracting the pmole of 5-HETE in the tubes containing buffer alone (blank) from the pmoles of 5-HETE in the tubes containing […]. The ability of the test compound to modulate the activity of this enzyme is determined by a decrease or increase in the net amount of 5-HETE produced. This assay is a modification of that described by Bach and Brashler for rat peritoneal cells: Bach, M., Brashler, J.: Ionophore A23187-Induced Production of SRS-A by Rat Peritoneal Cells In Vitro: Evidence for Production by Mononuclear Cells. J. Immunol. 120 998-1005 (1978).
*NDGA-nordihydroguaiaretic acid
(§1) If the percentage of inhibition exceeds 50%, the compounds are then evaluated in terms of response over a range of concentrations. From a plot of response against concentration, the I50 value is obtained. The I50 value is the concentration at which 50% inhibition is observed.

RAT 5-LIPOXYGENASE = biological target: T2, RAT 5-LIPOXYGENASE (Rattus norvegicus, UniProt P12527); assay: Biosynthesis of 5-HETE by rat polymorphonuclear leukocytes in vitro (inhibition of rat 5-lipoxygenase); type: cell-based; details: rat neutrophils, A23187, 3 minutes at 30° C.; concentration at which 50% inhibition is observed; read-out: INHIBITION OF RAT 5-LIPOXYGENASE, I50
T2 construct: A suspension of rat neutrophils in buffer; endogenous in cells; host or cells: rat neutrophils (polymorphonuclear leukocytes)
T2 sequence (P12527 1-673): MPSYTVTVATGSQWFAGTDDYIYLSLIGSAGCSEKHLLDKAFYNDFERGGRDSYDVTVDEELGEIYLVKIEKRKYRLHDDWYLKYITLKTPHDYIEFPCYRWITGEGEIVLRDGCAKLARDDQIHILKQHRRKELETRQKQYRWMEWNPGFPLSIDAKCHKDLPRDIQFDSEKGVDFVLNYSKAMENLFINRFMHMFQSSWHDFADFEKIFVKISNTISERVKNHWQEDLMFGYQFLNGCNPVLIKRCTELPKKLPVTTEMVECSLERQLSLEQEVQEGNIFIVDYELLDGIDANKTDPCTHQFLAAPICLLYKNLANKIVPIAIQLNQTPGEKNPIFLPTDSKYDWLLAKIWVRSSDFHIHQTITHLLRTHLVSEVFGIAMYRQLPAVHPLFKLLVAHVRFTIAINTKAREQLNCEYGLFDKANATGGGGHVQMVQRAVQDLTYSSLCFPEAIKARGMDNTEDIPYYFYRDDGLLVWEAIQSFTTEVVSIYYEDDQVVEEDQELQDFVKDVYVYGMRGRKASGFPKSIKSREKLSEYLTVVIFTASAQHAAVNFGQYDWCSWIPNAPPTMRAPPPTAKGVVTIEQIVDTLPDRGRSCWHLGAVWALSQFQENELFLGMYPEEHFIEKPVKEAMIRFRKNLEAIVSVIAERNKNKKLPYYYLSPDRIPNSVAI
Procedure: Protocol for the Biosynthesis of 5-HETE by Rat Polymorphonuclear Leukocytes In Vitro
A suspension of rat neutrophils in buffer is incubated for 3 minutes at 30° C. with [^14 C]-arachidonic acid (AA) and calcium ionophore A23187. Citric Acid (2M) NDGA (10 mM) is used to quench the reaction. Following the addition of a trace amount of (^3 H)-5-HETE together with an excess of unlabeled 5-HETE to each tube, the mixture is extracted with chloroform/methanol. The organic layer is washed with dilute acid and an aliquot is transferred to glass tubes and dried. The residue is dissolved in a small volume of chloroform and an aliquot is spotted on silica gel TLC sheets, which are developed with an ethyl acetate/isoctane/water/acetic acid solvent system. The 5-HETE spots are visualized under UV light, cut out and placed in scintillation vials for counting. After adjusting for the extraction efficiency, the amount (pmole) of [^14 C]-5-HETE in each of the tubes is quantitated. The net pmoles of 5-HETE are obtained by subtracting the pmoles of 5-HETE in the tubes containing buffer alone (blank) from the pmoles of 5-HETE in the tubes containing […]. The ability of the test compounds to modulate the activity of this enzyme is determined by a decrease or increase in the net amount of 5-HETE produced.
as §1

**Q.** `COC(=O)[C@@H](Cc1ccccc1)NC(=O)Cc1ccc(OCC2CC2)c(Cl)c1` [3-Chloro-4-cyclopropylmethyloxyphenylacetyl-D-phenylalanine methyl ester] was tested. Which IC50 (HUMAN 5 LIPOXYGENASE) did it give?
**A.** The IC50 was 50 µM.

**Q.** What about the IC50 (RAT 5-LIPOXYGENASE) of the same compound?
**A.** Its IC50 is 1 µM.

**Q.** How did the inhibition at 30 µM (HUMAN 5 LIPOXYGENASE) turn out when `COC(=O)[C@@H](Cc1ccccc1)NC(=O)Cc1ccc(OC(C)C)c(Cl)c1` [3-Chloro-4-isopropyloxyphenylacetyl-D-phenylalanine methyl ester] was run?
**A.** Its inhibition at 30 µM is 95%.

**Q.** And the IC50 (RAT 5-LIPOXYGENASE)?
**A.** Its IC50 is 2 µM.

**Q.** For `COC(=O)[C@@H](Cc1ccccc1)NC(=O)Cc1ccc(OCCc2ccccc2)c(Cl)c1` [3-Chloro-4-phenylethyloxyphenylacetyl-D-phenylalanine methyl ester], which IC50 (HUMAN 5 LIPOXYGENASE) is on record?
**A.** The IC50 was 7 µM.

**Q.** And the IC50 (RAT 5-LIPOXYGENASE)?
**A.** Its IC50 is 0.7 µM.

**Q.** Which results are given for `COC(=O)[C@@H](Cc1ccccc1)N(C)C(=O)Cc1ccc(OCCc2ccccc2)c(Cl)c1` [3-Chloro-4-phenylethyloxyphenylacetyl-N--methyl-D-phenylalanine methyl ester]?
**A.** inhibition at 30 µM (HUMAN 5 LIPOXYGENASE): 28%; IC50 (RAT 5-LIPOXYGENASE): 5 µM

**Q.** `COC(=O)[C@@H](Cc1ccccc1)NC(=O)Cc1ccc(OCc2ccccc2)c(Cl)c1` [4-Benzyloxy-3-Chlorophenylacetyl-D-Phenylalanine Methyl Ester] was tested. Which IC50 (HUMAN 5 LIPOXYGENASE) did it give?
**A.** The IC50 was 0.6 µM.

**Q.** What about the IC50 (RAT 5-LIPOXYGENASE) of the same compound?
**A.** Its IC50 is 0.25 µM.

**Q.** With `COC(=O)[C@@H](Cc1c[nH]c2ccccc12)NC(=O)Cc1ccc(OCc2ccccc2)c(Cl)c1` [4-Benzyloxy-3-chlorophenylacetyl-D-tryptophan methyl ester] as the compound, how does the IC50 (HUMAN 5 LIPOXYGENASE) read?
**A.** The IC50 was 14 µM.

**Q.** What about the IC50 (RAT 5-LIPOXYGENASE) of the same compound?
**A.** The IC50 was 5.4 µM.

**Q.** What does the source list for `CN(CCc1ccccc1)C(=O)Cc1ccc(OCCc2ccccc2)c(Cl)c1` [N--[3-Chloro-4-phenylethyloxyphenylacetyl]-N--methyl-2-phenylethylamine]?
**A.** IC50 (HUMAN 5 LIPOXYGENASE): 8 µM; IC50 (RAT 5-LIPOXYGENASE): 2.2 µM

**Q.** For `CN(CCc1ccccc1)C(=O)Cc1ccc(OCc2ccccc2)c(Cl)c1` [N--[4-Benzyloxy-3-chlorophenylacetyl]-N--methyl-2-phenylethylamine], which IC50 (HUMAN 5 LIPOXYGENASE) is on record?
**A.** Its IC50 is 2 µM.

**Q.** And the IC50 (RAT 5-LIPOXYGENASE)?
**A.** The IC50 was 4.2 µM.
